What was measured:
Assay in all cases: HMF sulfoconjugation assay
Assay type in all cases: biochemical
[1] = target: T1, rSult2a1 (Rattus norvegicus, UniProt P15709)
T1 construct: made in house; host or cells: Salmonella typhimurium TA1538 (cytosolic fraction, enzyme not purified)
T1 sequence (P15709 1-284): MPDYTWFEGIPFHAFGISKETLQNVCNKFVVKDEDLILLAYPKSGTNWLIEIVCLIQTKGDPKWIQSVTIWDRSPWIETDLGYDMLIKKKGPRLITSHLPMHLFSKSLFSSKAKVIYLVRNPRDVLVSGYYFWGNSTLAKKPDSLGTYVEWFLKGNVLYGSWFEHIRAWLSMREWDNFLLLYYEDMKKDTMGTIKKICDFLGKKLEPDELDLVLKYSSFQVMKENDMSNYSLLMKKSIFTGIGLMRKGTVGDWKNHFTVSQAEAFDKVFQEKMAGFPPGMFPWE
Method in brief: (§1)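 SULT cytosol from TA1538, 25–200 µg protein; KPi 50 mM pH 7.4, MgCl2 5 mM, PAPS 50 µM; HMF varied; 37 °C, 30 min; stop with ice-cold 2-propanol; SMF by UPLC-MS/MS, LOD 0.5 pmol SMF/mg/min.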

[2] = target: T2, hSULT1A1 (Homo sapiens, UniProt P50225)
T2 construct: made in house; host or cells: Salmonella typhimurium TA1538 (cytosolic fraction, not purified)
Method in brief: as §1

[3] = target: T3, mSult2b1b (Mus musculus, UniProt O35400)
T3 construct: made in house; host or cells: Salmonella typhimurium TA1538 (cytosolic fraction, enzyme not purified)
T3 sequence (O35400 1-338): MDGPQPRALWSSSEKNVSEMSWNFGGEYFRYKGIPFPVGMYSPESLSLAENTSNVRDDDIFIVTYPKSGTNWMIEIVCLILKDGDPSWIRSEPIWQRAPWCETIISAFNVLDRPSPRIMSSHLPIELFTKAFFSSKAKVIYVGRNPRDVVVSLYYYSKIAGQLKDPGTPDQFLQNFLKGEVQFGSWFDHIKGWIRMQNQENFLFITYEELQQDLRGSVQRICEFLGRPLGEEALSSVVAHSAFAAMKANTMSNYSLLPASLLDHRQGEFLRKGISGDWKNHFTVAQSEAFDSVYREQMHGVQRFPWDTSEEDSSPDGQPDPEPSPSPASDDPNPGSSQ
Method in brief: as §1

[4] = target: T4, mSult1c2 (Mus musculus, UniProt Q9D939)
T4 construct: made in house; host or cells: Salmonella typhimurium TA1538 (cytosolic fraction, enzyme not purified)
Method in brief: as §1

[5] = target: T5, hSULT1C1 (Homo sapiens, UniProt O00338)
T5 construct: made in house; host or cells: Salmonella typhimurium TA1538 (cytosolic fraction, not purified)
Method in brief: as §1

[6] = target: T6, mSult1d1 (Mus musculus, UniProt Q3UZZ6)
T6 construct: made in house; host or cells: Salmonella typhimurium TA1538 (cytosolic fraction, enzyme not purified)
Method in brief: as §1

[7] = HMF sulfoconjugation, Michaelis-Menten fit

T2 sequence (P50225 whole entry): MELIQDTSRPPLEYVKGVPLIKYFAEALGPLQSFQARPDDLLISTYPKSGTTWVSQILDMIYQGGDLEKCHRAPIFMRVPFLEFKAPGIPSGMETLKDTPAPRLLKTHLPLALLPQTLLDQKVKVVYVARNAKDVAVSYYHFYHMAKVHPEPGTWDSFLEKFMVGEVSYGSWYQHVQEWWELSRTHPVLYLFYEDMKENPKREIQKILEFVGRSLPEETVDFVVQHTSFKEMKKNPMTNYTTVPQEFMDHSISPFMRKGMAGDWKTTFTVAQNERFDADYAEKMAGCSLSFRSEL
T6 sequence (Q3UZZ6 whole entry): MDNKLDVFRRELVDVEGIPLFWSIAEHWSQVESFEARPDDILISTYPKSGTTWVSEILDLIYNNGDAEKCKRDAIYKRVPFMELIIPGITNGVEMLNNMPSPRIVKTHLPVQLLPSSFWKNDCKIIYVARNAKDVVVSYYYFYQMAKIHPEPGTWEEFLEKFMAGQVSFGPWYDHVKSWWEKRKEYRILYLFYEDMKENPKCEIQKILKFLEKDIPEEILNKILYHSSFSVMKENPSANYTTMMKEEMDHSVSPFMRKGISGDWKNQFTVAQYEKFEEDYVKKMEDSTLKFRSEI
T5 sequence (O00338 whole entry): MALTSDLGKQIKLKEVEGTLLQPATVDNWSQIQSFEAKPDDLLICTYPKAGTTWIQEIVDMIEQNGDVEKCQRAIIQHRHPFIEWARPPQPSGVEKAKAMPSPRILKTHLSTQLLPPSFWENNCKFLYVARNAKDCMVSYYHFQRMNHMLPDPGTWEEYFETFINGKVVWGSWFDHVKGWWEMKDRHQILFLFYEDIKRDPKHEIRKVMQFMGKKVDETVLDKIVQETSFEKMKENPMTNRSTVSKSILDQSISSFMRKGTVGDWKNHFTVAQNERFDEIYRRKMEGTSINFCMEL
T4 sequence (Q9D939 whole entry): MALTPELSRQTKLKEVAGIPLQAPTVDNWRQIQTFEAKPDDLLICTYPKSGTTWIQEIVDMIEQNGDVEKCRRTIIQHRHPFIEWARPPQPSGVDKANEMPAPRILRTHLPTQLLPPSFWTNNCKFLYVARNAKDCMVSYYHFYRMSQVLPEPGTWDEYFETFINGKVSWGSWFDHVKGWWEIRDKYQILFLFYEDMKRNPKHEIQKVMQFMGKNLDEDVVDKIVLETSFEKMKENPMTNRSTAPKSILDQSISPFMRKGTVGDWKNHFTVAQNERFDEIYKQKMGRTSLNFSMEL

SMILES: O=Cc1ccc(CO)o1 [HMF, 5-Hydroxymethylfurfural]
- Rate of sulfoconjugation ([1]; 0.1 mM HMF): <0.5 pmol/mg/min
- Rate of sulfoconjugation ([1]; 1 mM HMF): 1.8 ± 0.1 pmol/mg/min
- Rate of sulfoconjugation ([1]; 10 mM HMF): 17.2 ± 0.6 pmol/mg/min
- Rate of sulfoconjugation ([1]; 100 mM HMF): 58.9 ± 4.6 pmol/mg/min
- ratio of HMF sulfoconjugation efficiency, hSULT1A1 vs hSULT1C2 [2]: about 19 times
- Rate of sulfoconjugation ([2]; 0.1 mM HMF): 20.4 ± 2.8 pmol/mg/min
- Rate of sulfoconjugation ([2]; 1 mM HMF): 171 ± 18 pmol/mg/min
- Rate of sulfoconjugation ([2]; 10 mM HMF): 641 ± 100 pmol/mg/min
- Rate of sulfoconjugation ([2]; 100 mM HMF): 699 ± 170 pmol/mg/min
- K M [2, 7]: 3.2 ± 0.4 mM
- Rate of sulfoconjugation ([3]; 0.1 mM HMF): <0.5 pmol/mg/min
- Rate of sulfoconjugation ([3]; 1 mM HMF): <0.5 pmol/mg/min
- Rate of sulfoconjugation ([3]; 10 mM HMF): <0.5 pmol/mg/min
- Rate of sulfoconjugation ([3]; 100 mM HMF): <0.5 pmol/mg/min
- Rate of sulfoconjugation ([4]; 0.1 mM HMF): <0.5 pmol/mg/min
- Rate of sulfoconjugation ([4]; 1 mM HMF): 2.0 ± 0.2 pmol/mg/min
- Rate of sulfoconjugation ([4]; 10 mM HMF): 16.2 ± 1.1 pmol/mg/min
- Rate of sulfoconjugation ([4]; 100 mM HMF): 92.4 ± 6.7 pmol/mg/min
- Rate of sulfoconjugation ([5]; 0.1 mM HMF): <0.5 pmol/mg/min
- Rate of sulfoconjugation ([5]; 1 mM HMF): <0.5 pmol/mg/min
- Rate of sulfoconjugation ([5]; 10 mM HMF): 4.7 ± 0.3 pmol/mg/min
- Rate of sulfoconjugation ([5]; 100 mM HMF): 11.0 ± 1.4 pmol/mg/min
- Rate of sulfoconjugation ([6]; 0.1 mM HMF): 124 ± 33 pmol/mg/min
- Rate of sulfoconjugation ([6]; 1 mM HMF): 1,160 ± 260 pmol/mg/min
- Rate of sulfoconjugation ([6]; 10 mM HMF): 6,750 ± 1,190 pmol/mg/min
- Rate of sulfoconjugation ([6]; 100 mM HMF): 22,400 ± 2,400 pmol/mg/min
- K M [6, 7]: 31.9 ± 5.7 mM

Source: paper PMC4710668, “Bioactivation of food genotoxicants 5-hydroxymethylfurfural and furfuryl alcohol by sulfotransferases from human, mouse and rat: a comparative study” (Archives of Toxicology, 2014)
